Literature values in patent US9974767B2, “Statins in the treatment of muscular dystrophies and myopathies” (University of Washington, priority 2014, dated 2018).

Details: food intake; cited from earlier work

Row | SMILES | absorption when consumed with food
1 | CC[C@H](C)C(=O)O[C@H]1C[C@@H](C)C=C2C=C[C@H](C)[C@H](CC[C@@H]3C[C@@H](O)CC(=O)O3)[C@H]21 [lovastatin] | more efficiently absorbed
2 | COCc1c(C(C)C)nc(C(C)C)c(/C=C/[C@@H](O)C[C@@H](O)CC(=O)O)c1-c1ccc(F)cc1 [cerivastatin] | not affected
3 | CC(C)c1nc(N(C)S(C)(=O)=O)nc(-c2ccc(F)cc2)c1/C=C/[C@@H](O)C[C@@H](O)CC(=O)O [rosuvastatin] | not affected
4 | CC(C)n1c(/C=C/C(O)CC(O)CC(=O)O)c(-c2ccc(F)cc2)c2ccccc21 (centres unmarked) [fluvastatin] | reduced absorption
5 | CC[C@H](C)C(=O)O[C@H]1C[C@H](O)C=C2C=C[C@H](C)[C@H](CC[C@@H](O)C[C@@H](O)CC(=O)O)[C@H]21 [pravastatin] | reduced absorption
